Data reported in PMC7918738, “Microtubule Destabilizing Sulfonamides as an Alternative to Taxane-Based Chemotherapy” (International Journal of Molecular Sciences, 2021).
Values after ≈ are worked out from the molar mass of the structure shown.

Columns and labels:
[1] = tested on: tubulin (microtubular protein isolated from calf brain); assay: Tubulin Polymerization Inhibition (TPI) assay, turbidity; assay type: biochemical; settings: 1.5 mg/mL microtubular protein
Method: The effect of all the synthesized compounds on the in vitro tubulin polymerization was evaluated at 10 µM. All the compounds that inhibited polymerization more than 30% were also assayed at 20 µM. IC50 values were calculated for those compounds inhibiting tubulin polymerization by at least 50% at 20 µM (Table 1 and Supplemental Figure S2).
Microtubular protein was isolated from calf brain according to the modified Shelanski method by two cycles of temperature-dependent assembly/disassembly and stored at −80 °C. Before each use, protein concentration was determined by the Bradford method taking BSA as standard.
Tubulin polymerization was monitored using a Helios α spectrophotometer by measuring the increase in turbidity at 450 nm, caused by a shift from 4 °C to 37 °C, which allows the in vitro microtubular protein to depolymerize and polymerize, respectively. The assay was carried out in quartz cuvettes containing 1.5 mg/mL microtubular protein and the ligand (except for control cuvette with only DMSO at the same concentration) in a mixture of 0.1 M MES buffer, 1 mM EGTA, 1 mM MgCl2, 1 mM β-ME, and 1.5 mM GTP at pH 6.7 (final volume 500 µL). Cuvettes were preincubated at 20 °C for 30 min, to allow ligand binding to tubulin, and subsequently cooled on ice for 10 min. Then, the experiment starts at 4 °C to establish the initial baseline. The assembly process was initiated by a temperature shift to 37 °C and the turbidity produced by tubulin polymerization can be measured by an absorbance increase. After reaching a stable plateau, the temperature was switched back to 4 °C to return to the initial absorption values (to confirm the reversible nature of the monitored process and to determine whether or not the microtubular tubular protein has stabilized). The difference in amplitude between the stable plateau and the initial baseline of the curves was taken as the degree of tubulin polymerization for each experiment. Comparison with control curves under identical conditions but without ligands yielded TPI as a percentage value. All compounds were tested at 10 µM concentration. Compounds that inhibited tubulin polymerization by at least 30% at 10 µM were tested at 20 µM. IC50 values were calculated for compounds that inhibit tubulin polymerization by more than 50% at 20 µM. Compounds were dissolved in DMSO, and the final solvent concentration never exceeded 4% (v/v), which has been reported not to interfere with the assembly process. All the measurements were carried out in at least two independent experiments using microtubular protein from different preparations.

[2] = tested on: HeLa (cervix epithelioid carcinoma); assay: Antiproliferative activity against HeLa (XTT colorimetric method); assay type: cell-based; settings: Homo sapiens, 72 h treatment
Method: (§1) The in vitro antiproliferative activity of MDS at 1 µM after 72 h treatments was evaluated by a colorimetric method against the human tumor cell lines HeLa (cervix epithelioid carcinoma) and MCF7 (breast adenocarcinoma). Compounds showing more than 40% inhibition at 1 µM in at least three independent assays were evaluated in a range of concentrations between 0.1 nM and 10 µM for the determination of half-maximal inhibitory concentrations (IC50) (Table 1). Paclitaxel, CA-4, and ABT-751 were used as references.
(§2) MCF7 (human breast carcinoma), SKOV-3 (human ovarian carcinoma), OVCAR-3 (human ovarian carcinoma), OVCAR-8 (human ovarian carcinoma), and HeLa (human cervical carcinoma) cell lines were cultured in Dulbecco’s Modified Eagle’s Medium (DMEM) (Gibco, Thermo Fischer Scientific) containing 10% (v/v) heat-inactivated fetal bovine serum (HIFBS) (Lonza-Cambrex, Karlskoga, Sweden), 2 mM L-glutamine (Lonza-Cambrex, Karlskoga, Sweden), 100 μg/mL streptomycin, and 100 IU/mL penicillin (Lonza-Cambrex) at 37 °C in humidified 95% air and 5% CO2. HT-29 (human colon carcinoma), IGROV-1 (human ovarian carcinoma), and A2780 (human ovarian carcinoma) cell lines were cultured in RPMI 1640 medium (Gibco, Thermo Fischer Scientific) supplemented with 10% HIFBS, 100 μg/mL streptomycin, and 100 IU/mL penicillin at 37 °C in humidified 95% air and 5% CO2 atmosphere. The presence of mycoplasma was routinely checked with MycoAlert kit (Lonza-Cambrex) and only mycoplasma-free cells were used in the experiments. Ovarian tumor cell lines were originally acquired from Dr Atanasio Pandiella from Centro de Investigación del Cáncer (CIC), Salamanca, Spain. HeLa, HT-29 and MCF7 tumor cell lines were provided by Dr Faustino Mollinedo from Centro de Investigaciones Biológicas Margarita Salas, Madrid, Spain.
(§3) MCF7, HeLa, and HT-29 cell proliferation, when treated with the corresponding compounds, were determined using the XTT (sodium 3’-[1(phenylaminocarbonyl)-3,4-tetrazolium]-bis(4-methoxy-6-nitro)-benzenesulfonic acid hydrate) cell proliferation kit (Roche Molecular Biochemicals, Mannheim, Germany). A freshly prepared mixture of XTT labeling reagent with 0.02% (v/v) PMS (N-methyl-dibenzopyrazine methyl sulfate) electron coupling reagent was added to cells (50 µL/well in 96-well plates, total volume of 160 µL/well). Cells were incubated under standard culture conditions for 4 h (MCF7 and HeLa) or 6 h (HT-29). The absorbance of the formazan product generated was measured at 450 nm using a multi-well plate reader. SKOV-3, OVCAR-3, OVCAR-8, IGROV-1, A-2780 cell proliferation, when treated with the corresponding compound, were determined using MTT (3-(4,5-dimethylthiazol-2-yl)-2,5-diphenyl-2H-tetrazolium bromide) (Sigma-Aldrich, St. Louis, MO, USA). MTT in Phosphate Buffer Saline (PBS) (5 mg/ml) was added to cells (110 µL/well in 24-well plates, total volume of 1110 µL/well). After 1 hour of incubation, the medium was aspirated, and formazan violet crystals were dissolved in dimethyl sulfoxide (DMSO) (500 µL/well). Absorbance was measured at 570 nm in a plate reader (Ultra Evolution, Tecan, Männedorf, Suiza). To determine cell viability, cells in exponential growth phase were seeded (100 µL/well in 96-well plates and 1000 µL/well in 24-well plates) with appropriate cell line concentration (1.5·10^4 cells/mL for MCF7 and HeLa, 3·10^4 cells/mL for HT-29, and 1·10^4 cells/mL for SKOV-3, OVCAR-3, OVCAR-8, IGROV-1, and A-2780) in complete RPMI 1640 or DMEM medium at 37°C and 5% CO2 atmosphere. After 24 h incubation, to allow cells to attach to the plates, all compounds were added at 1 µM concentration and the effect on the proliferation was evaluated 72 h post-treatment. Compounds showing antiproliferative effects at tested concentration were selected for IC50 calculation (50% inhibitory concentration with respect to the untreated controls) from 10^−5 to 10^−10 M concentration. Non-linear curves fitting the experimental data were carried out for each compound. […]

[3] = Aqueous solubility, saturation shake-flask method, UV absorbance; settings: pH 7, aqueous buffer, thermodynamic from solid
Method: UV absorbance at three maximum absorbance wavelengths of selected compounds was measured after 48 h shaking and subsequent microfiltration.
The aqueous solubility of the sulfonamides was determined using an approach based on the saturation shake-flask method. Tested compounds (1–2 mg) were stirred in pH 7.0 phosphate buffer (300 µL) for 48 h at room temperature. The resulting suspension was filtered over a 45 µm filter to discard insoluble residues, and the concentration in the supernatant was measured by UV absorbance. To determine the concentration, a scan between 270 and 400 nm was performed in a Helios-α UV-320 Spectrophotometer (Thermo-Spectronic, Thermo Fischer Scientific, Waltham, MA, USA) for each tested compound. Then, three maximum wavelengths of absorbance per compound were selected from the previous scan and calibration curves were performed at these three wavelengths. Solubility results are given as the average of the three measurements.

[4] = tested on: MCF7 (breast adenocarcinoma); assay: Antiproliferative activity against MCF7 (XTT colorimetric method); assay type: cell-based; settings: Homo sapiens, 72 h treatment
Method: as §1, §2, §3

[5] = tested on: HT-29 (colon adenocarcinoma); assay: Antiproliferative activity against CA-4-resistant HT-29 with or without verapamil (sensitivity to MDR pumps, XTT); assay type: cell-based, human; settings: verapamil alone at 10 µM
Text: Detecting changes in drug potency when inhibiting MDR-mediated efflux reflect that these transporters reduce the intracellular drug concentration. HT-29 has been reported to express moderate levels of MDR1, accounting for a resistant phenotype. A comparison of the antiproliferative IC50 values of each MDS in the presence or absence of verapamil provides an estimate of the susceptibility of each compound to efflux pumps.
as §2
MCF7, HeLa, and HT-29 cell proliferation, when treated with the corresponding compounds, were determined using the XTT (sodium 3’-[1(phenylaminocarbonyl)-3,4-tetrazolium]-bis(4-methoxy-6-nitro)-benzenesulfonic acid hydrate) cell proliferation kit (Roche Molecular Biochemicals, Mannheim, Germany). A freshly prepared mixture of XTT labeling reagent with 0.02% (v/v) PMS (N-methyl-dibenzopyrazine methyl sulfate) electron coupling reagent was added to cells (50 µL/well in 96-well plates, total volume of 160 µL/well). Cells were incubated under standard culture conditions for 4 h (MCF7 and HeLa) or 6 h (HT-29). The absorbance of the formazan product generated was measured at 450 nm using a multi-well plate reader. SKOV-3, OVCAR-3, OVCAR-8, IGROV-1, A-2780 cell proliferation, when treated with the corresponding compound, were determined using MTT (3-(4,5-dimethylthiazol-2-yl)-2,5-diphenyl-2H-tetrazolium bromide) (Sigma-Aldrich, St. Louis, MO, USA). MTT in Phosphate Buffer Saline (PBS) (5 mg/ml) was added to cells (110 µL/well in 24-well plates, total volume of 1110 µL/well). After 1 hour of incubation, the medium was aspirated, and formazan violet crystals were dissolved in dimethyl sulfoxide (DMSO) (500 µL/well). Absorbance was measured at 570 nm in a plate reader (Ultra Evolution, Tecan, Männedorf, Suiza). To determine cell viability, cells in exponential growth phase were seeded (100 µL/well in 96-well plates and 1000 µL/well in 24-well plates) with appropriate cell line concentration (1.5·10^4 cells/mL for MCF7 and HeLa, 3·10^4 cells/mL for HT-29, and 1·10^4 cells/mL for SKOV-3, OVCAR-3, OVCAR-8, IGROV-1, and A-2780) in complete RPMI 1640 or DMEM medium at 37°C and 5% CO2 atmosphere. After 24 h incubation, to allow cells to attach to the plates, all compounds were added at 1 µM concentration and the effect on the proliferation was evaluated 72 h post-treatment. […] Non-linear curves fitting the experimental data were carried out for each compound. Compounds were dissolved in DMSO and the final solvent concentrations never exceeded 0.5% (v/v). The control wells included […] with 0.5% (v/v) DMSO and the positive control. 10 µM verapamil was included as a control for the HT-29 cell line.

| Compound | IC50 [1] [nM] | TPI % 10 µM ([1]; compound at 10 µM) [%] | IC50 [2] [nM] | solubility at 48 h [3] [µg/mL] | IC50 [4] [nM] | Effect on HT-29 cell proliferation [5] |
| --- | --- | --- | --- | --- | --- | --- |
| COc1ccc(S(=O)(=O)Nc2cccnc2Nc2ccc(O)cc2)cc1 [ABT-751, reference compound] | 4400 | 69 | 388 | 40 (≈ 108 µM) | 180 | – |
| COc1ccc(CCN(C)CCCC(C#N)(c2ccc(OC)c(OC)c2)C(C)C)cc1OC (stereo not drawn) [verapamil, reference compound] | – | – | – | – | – | did not affect cell proliferation |
